Reference: ChEMBL document CHEMBL4118225, “Development, Optimization, and Structure-Activity Relationships of Covalent-Reversible JAK3 Inhibitors Based on a Tricyclic Imidazo[5,4- d]pyrrolo[2,3- b]pyridine Scaffold” (J Med Chem, 2018)
Values after ≈ are worked out from the molar mass of the structure shown.

Key:
[1] = biological target: T1, Tyrosine-protein kinase JAK1 (Homo sapiens, UniProt P23458)
Description: Inhibition of human JAK1 using poly[Glu:Tyr] (4:1) as substrate in presence of 10 uM [gamma33P]ATP by radiometric method

[2] = biological target: Non-receptor tyrosine-protein kinase TYK2 (Homo sapiens, UniProt P29597)
Non-receptor tyrosine-protein kinase TYK2, sequence (P29597 whole entry): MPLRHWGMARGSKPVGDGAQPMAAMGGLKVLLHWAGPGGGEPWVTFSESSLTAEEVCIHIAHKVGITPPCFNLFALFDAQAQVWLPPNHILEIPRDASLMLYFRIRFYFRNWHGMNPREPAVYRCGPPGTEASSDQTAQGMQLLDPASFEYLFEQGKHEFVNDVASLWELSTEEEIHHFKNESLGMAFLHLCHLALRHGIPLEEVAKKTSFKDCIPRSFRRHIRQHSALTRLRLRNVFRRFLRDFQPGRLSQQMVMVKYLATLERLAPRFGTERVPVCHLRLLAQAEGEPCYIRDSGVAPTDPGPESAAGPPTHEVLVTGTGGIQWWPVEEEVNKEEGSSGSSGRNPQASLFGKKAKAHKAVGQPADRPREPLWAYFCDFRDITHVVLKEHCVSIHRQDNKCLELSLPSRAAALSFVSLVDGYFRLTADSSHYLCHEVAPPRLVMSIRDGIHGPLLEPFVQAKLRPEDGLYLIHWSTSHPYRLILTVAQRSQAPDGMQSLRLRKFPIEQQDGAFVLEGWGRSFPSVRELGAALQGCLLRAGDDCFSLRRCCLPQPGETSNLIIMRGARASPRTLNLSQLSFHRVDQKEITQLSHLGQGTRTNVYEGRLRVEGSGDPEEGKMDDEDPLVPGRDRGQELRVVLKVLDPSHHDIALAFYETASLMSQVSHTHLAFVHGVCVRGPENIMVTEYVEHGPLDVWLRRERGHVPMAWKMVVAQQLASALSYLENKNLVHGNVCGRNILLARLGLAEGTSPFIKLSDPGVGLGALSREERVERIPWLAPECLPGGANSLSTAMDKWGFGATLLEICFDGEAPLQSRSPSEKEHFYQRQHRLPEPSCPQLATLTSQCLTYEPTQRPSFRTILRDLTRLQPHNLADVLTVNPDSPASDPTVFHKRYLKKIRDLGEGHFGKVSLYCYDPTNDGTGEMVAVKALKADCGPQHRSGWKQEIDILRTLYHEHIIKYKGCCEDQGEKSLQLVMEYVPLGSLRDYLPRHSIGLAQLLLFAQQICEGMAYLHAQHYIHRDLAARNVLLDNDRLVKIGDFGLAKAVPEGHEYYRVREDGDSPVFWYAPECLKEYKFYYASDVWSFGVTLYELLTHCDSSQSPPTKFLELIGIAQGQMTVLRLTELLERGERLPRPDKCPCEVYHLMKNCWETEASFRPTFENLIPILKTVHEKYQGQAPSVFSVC

[3] = biological target: T2, Tyrosine-protein kinase JAK2 (Homo sapiens, UniProt O60674)
T2 sequence (O60674 whole entry): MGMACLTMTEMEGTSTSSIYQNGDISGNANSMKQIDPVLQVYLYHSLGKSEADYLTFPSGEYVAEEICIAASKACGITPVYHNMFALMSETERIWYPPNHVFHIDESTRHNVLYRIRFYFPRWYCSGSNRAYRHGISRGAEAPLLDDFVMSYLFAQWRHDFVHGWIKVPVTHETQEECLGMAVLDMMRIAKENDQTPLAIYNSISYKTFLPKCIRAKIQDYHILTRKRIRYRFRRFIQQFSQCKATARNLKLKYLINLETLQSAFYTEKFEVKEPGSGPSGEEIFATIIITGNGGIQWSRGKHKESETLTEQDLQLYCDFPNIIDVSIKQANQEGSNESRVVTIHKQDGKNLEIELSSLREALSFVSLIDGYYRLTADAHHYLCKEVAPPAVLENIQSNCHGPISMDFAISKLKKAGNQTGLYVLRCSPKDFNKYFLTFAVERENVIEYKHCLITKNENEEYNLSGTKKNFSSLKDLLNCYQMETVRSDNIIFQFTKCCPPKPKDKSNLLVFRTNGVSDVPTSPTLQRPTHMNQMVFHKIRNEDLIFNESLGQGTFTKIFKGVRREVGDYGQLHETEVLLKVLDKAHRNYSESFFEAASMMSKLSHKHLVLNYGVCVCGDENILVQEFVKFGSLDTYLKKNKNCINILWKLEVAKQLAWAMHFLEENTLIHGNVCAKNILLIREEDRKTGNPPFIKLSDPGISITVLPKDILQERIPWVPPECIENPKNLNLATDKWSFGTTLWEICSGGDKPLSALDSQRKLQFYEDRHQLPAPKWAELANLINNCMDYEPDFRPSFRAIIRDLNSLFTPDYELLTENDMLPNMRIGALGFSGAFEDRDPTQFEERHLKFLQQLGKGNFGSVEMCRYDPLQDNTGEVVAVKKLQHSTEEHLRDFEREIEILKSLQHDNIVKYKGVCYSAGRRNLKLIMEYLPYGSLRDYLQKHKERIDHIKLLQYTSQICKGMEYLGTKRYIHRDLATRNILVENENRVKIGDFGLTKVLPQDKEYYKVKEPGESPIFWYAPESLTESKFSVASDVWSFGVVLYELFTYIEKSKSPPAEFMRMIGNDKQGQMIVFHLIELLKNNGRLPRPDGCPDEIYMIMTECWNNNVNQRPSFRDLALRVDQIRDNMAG
Description: Inhibition of human JAK2 using poly[Glu:Tyr] (4:1) as substrate in presence of 10 uM [gamma33P]ATP by radiometric method

[4] = Thiol reactivity in kinase assay buffer in presence of DTT; assay type: physicochemical
[5] = biological target: T3, Tyrosine-protein kinase JAK3 (Homo sapiens, UniProt P52333)
T3 sequence (P52333 whole entry): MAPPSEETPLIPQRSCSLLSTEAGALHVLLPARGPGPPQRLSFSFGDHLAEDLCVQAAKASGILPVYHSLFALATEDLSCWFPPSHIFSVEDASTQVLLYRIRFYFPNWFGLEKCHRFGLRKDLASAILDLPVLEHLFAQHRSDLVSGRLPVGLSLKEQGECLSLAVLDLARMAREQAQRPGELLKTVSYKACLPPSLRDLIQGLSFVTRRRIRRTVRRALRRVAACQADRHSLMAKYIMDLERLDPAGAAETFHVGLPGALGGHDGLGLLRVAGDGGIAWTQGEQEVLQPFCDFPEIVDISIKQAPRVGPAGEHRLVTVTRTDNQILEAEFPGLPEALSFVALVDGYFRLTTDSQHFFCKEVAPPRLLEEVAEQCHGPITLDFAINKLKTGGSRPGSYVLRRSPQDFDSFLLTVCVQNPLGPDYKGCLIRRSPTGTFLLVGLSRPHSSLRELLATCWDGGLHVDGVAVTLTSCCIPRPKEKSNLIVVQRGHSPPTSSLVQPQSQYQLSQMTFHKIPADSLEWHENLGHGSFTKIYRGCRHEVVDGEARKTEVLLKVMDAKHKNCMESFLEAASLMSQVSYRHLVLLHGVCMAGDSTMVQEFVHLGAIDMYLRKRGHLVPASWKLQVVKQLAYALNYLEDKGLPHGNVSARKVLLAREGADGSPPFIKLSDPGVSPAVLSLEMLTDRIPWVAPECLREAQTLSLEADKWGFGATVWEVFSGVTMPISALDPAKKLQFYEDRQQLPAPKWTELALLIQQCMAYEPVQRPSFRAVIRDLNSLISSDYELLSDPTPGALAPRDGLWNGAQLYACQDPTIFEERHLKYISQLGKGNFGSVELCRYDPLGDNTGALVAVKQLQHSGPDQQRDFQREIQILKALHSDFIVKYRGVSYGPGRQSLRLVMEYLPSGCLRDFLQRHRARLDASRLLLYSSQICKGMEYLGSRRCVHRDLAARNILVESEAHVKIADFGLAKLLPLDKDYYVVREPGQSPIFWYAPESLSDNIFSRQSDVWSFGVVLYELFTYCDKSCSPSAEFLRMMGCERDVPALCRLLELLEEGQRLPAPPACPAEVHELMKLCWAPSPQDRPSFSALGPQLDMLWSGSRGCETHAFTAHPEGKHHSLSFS

[6] = biological target: T3, Tyrosine-protein kinase JAK3; remark: listed apart in the source
Description: Inhibition of recombinant human JAK3 (781 to 1124 residues) expressed in baculovirus expression system assessed as reduction in polypeptide substrate phosphorylation in presence of ATP by ELISA

[7] = biological target: T2, Tyrosine-protein kinase JAK2; test: Inhibition of kinase tracer-05 binding to C-terminal NanoLuc tagged full length JAK2 (unknown origin) expressed in HEK cells by NanoBRET assay; assay type: cell-based
[8] = Metabolic stability in human whole blood assessed as parent compound remaining at 1 uM after 180 mins by LC-MS analysis; assay type: ADME, tissue-based; conditions: read-out: Stability
[9] = biological target: Tyrosine-protein kinase BTK (Homo sapiens, UniProt Q06187); test: Inhibition of kinase tracer-05 binding to C-terminal NanoLuc tagged full length BTK (unknown origin) expressed in HEK cells by NanoBRET assay; assay type: cell-based
Tyrosine-protein kinase BTK, sequence (Q06187 whole entry): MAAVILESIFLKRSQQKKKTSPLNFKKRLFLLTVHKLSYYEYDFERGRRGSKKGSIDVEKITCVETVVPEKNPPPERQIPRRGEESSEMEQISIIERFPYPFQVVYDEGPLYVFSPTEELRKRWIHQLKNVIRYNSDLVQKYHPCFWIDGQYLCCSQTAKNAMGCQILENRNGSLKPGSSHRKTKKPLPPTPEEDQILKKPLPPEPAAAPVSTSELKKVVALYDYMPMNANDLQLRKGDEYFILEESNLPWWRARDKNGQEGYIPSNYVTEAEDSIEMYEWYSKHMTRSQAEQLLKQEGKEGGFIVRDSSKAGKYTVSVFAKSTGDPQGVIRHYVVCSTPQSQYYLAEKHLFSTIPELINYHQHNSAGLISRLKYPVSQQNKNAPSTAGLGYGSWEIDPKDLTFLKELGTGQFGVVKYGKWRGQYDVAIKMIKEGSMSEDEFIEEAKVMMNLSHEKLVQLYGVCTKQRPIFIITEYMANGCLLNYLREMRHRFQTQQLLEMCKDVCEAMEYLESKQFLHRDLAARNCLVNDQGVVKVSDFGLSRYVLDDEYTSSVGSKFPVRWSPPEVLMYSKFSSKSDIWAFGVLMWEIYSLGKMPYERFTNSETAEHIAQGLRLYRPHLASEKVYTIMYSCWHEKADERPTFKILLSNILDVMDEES

[10] = Metabolic stability in mouse liver microsomes assessed as parent compound remaining at 100 uM after 180 mins in presence of NADPH regenerating system by LC-MS analysis; assay type: ADME, microsome; conditions: read-out: Stability
[11] = biological target: T3, Tyrosine-protein kinase JAK3; remark: listed apart in the source
Description: Inhibition of kinase tracer-05 binding to C-terminal NanoLuc tagged full length JAK3 (unknown origin) expressed in HEK cells by NanoBRET assay

[12] = biological target: T1, Tyrosine-protein kinase JAK1; remark: listed apart in the source
Description: Inhibition of kinase tracer-04 binding to C-terminal NanoLuc tagged full length JAK1 (unknown origin) expressed in HEK cells by NanoBRET assay

[13] = Aqueous solubility in pH 7.4 PBS buffer by HPLC analysis; assay type: physicochemical
[14] = Half life in human whole blood at 1 uM by LC-MS analysis; assay type: ADME, tissue-based
[15] = Aqueous solubility in HEPES buffer; assay type: physicochemical

T1 sequence (P23458 whole entry): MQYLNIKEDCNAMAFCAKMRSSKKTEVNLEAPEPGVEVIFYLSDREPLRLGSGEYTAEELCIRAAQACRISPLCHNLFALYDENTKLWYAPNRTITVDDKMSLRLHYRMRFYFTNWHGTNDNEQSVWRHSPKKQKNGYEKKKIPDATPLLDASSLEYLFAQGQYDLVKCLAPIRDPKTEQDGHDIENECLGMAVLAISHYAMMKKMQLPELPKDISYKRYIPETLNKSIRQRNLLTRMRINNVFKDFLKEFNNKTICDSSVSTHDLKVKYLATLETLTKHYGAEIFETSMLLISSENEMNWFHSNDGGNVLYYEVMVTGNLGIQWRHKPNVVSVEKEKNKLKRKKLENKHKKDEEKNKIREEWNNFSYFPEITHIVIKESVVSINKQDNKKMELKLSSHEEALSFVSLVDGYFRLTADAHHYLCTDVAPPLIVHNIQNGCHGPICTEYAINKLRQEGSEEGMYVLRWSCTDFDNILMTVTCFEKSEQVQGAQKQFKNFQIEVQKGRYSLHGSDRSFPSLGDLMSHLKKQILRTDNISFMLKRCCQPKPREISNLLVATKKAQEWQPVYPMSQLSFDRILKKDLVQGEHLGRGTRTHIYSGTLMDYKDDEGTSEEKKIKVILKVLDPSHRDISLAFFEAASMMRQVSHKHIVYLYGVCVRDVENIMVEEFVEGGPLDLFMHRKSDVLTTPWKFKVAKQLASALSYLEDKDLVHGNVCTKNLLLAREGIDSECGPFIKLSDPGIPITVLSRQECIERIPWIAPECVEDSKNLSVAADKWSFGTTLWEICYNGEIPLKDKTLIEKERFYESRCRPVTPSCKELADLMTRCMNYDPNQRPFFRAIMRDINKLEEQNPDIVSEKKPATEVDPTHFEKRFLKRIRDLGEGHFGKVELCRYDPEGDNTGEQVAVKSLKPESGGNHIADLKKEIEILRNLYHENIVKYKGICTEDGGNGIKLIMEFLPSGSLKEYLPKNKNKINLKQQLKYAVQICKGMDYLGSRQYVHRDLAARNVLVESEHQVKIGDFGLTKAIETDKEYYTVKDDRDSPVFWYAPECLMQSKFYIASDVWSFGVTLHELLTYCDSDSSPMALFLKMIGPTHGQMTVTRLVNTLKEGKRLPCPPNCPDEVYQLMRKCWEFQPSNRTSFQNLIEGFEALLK

**Q.** For CC(C)(O)C(=O)N1CCN(c2ccc(C(F)(F)F)c(C3=C(c4c[nH]c5ccccc45)C(=O)NC3=O)c2)CC1, which IC50 [1] is on record?
**A.** 344 nM

**Q.** And the IC50 [2]?
**A.** 2110 nM

**Q.** With N#CC(C#N)=Cc1ccc(-c2nc3cnc4[nH]ccc4c3n2C2CCCCC2)o1 as the compound, how does the IC50 [1] read?
**A.** 4 nM

**Q.** And the IC50 [3]?
**A.** 188 nM

**Q.** And the Drug metabolism [4]?
**A.** Metabolite_Detected

**Q.** What about the IC50 [5] of the same compound?
**A.** 0.39 nM

**Q.** What about the IC50 [6] of the same compound?
**A.** 4 nM

**Q.** And the EC50 [7]?
**A.** 630 nM

**Q.** And the IC50 [2]?
**A.** 14 nM

**Q.** And the remaining at 3 h, 1 µM [8]?
**A.** 1.5%

**Q.** And the EC50 [9]?
**A.** 5790 nM

**Q.** And the remaining at 3 h, 100 µM [10]?
**A.** 11%

**Q.** And the EC50 [11]?
**A.** 678 nM

**Q.** And the EC50 [12]?
**A.** 7660 nM

**Q.** For CN1CCN(C(=O)C(C#N)=Cc2ccc(-c3nc4cnc5[nH]ccc5c4n3C3CCCCC3)o2)CC1, which IC50 [1] is on record?
**A.** 117 nM

**Q.** And the IC50 [3]?
**A.** 765 nM

**Q.** What about the solubility [13] of the same compound?
**A.** 248 µM (≈ 120 µg/mL)

**Q.** And the half-life at 1 µM [14]?
**A.** 3 h

**Q.** What about the IC50 [5] of the same compound?
**A.** 0.74 nM

**Q.** What about the IC50 [6] of the same compound?
**A.** 14 nM

**Q.** What about the EC50 [7] of the same compound?
**A.** > 10000 nM

**Q.** What about the IC50 [2] of the same compound?
**A.** 791 nM

**Q.** And the remaining at 3 h, 1 µM [8]?
**A.** 47%

**Q.** And the EC50 [9]?
**A.** > 10000 nM

**Q.** And the remaining at 3 h, 100 µM [10]?
**A.** 6.9%

**Q.** What about the EC50 [11] of the same compound?
**A.** 257 nM

**Q.** And the EC50 [12]?
**A.** > 10000 nM

**Q.** For NC(=O)CCc1ccc(-c2nc3cnc4[nH]ccc4c3n2C2CCCCC2)o1, which IC50 [6] is on record?
**A.** 59 nM

**Q.** With CN(C)C(=O)CCc1ccc(-c2nc3cnc4[nH]ccc4c3n2C2CCCCC2)o1 as the compound, how does the IC50 [1] read?
**A.** 45 nM

**Q.** And the IC50 [3]?
**A.** 183 nM

**Q.** What about the IC50 [5] of the same compound?
**A.** 48 nM

**Q.** And the IC50 [6]?
**A.** 181 nM

**Q.** And the IC50 [2]?
**A.** 139 nM

**Q.** With N#CC(C#N)=Cc1ccc(-c2nc3cnc4[nH]ccc4c3n2C2CCCCC2)cc1 as the compound, how does the Drug metabolism [4] read?
**A.** Metabolite_Detected

**Q.** What about the IC50 [6] of the same compound?
**A.** 30 nM

**Q.** With N#C/C=C/c1ccc(-c2nc3cnc4[nH]ccc4c3n2C2CCCCC2)cc1 as the compound, how does the IC50 [6] read?
**A.** 390 nM

**Q.** With N#CC(C#N)=Cc1cccc(-c2nc3cnc4[nH]ccc4c3n2C2CCCCC2)c1 as the compound, how does the Drug metabolism [4] read?
**A.** Metabolite_Detected

**Q.** And the IC50 [6]?
**A.** 11 nM

**Q.** For NC(=O)CCc1ccc(-c2nc3cnc4[nH]ccc4c3n2C2CCCCC2)cc1, which IC50 [6] is on record?
**A.** 499 nM

**Q.** With CN(C)C(=O)CCc1ccc(-c2nc3cnc4[nH]ccc4c3n2C2CCCCC2)cc1 as the compound, how does the IC50 [6] read?
**A.** 642 nM

**Q.** For N#CCCc1ccc(-c2nc3cnc4[nH]ccc4c3n2C2CCCCC2)o1, which IC50 [1] is on record?
**A.** 16 nM

**Q.** And the IC50 [3]?
**A.** 48 nM

**Q.** And the IC50 [5]?
**A.** 10 nM

**Q.** What about the IC50 [6] of the same compound?
**A.** 129 nM

**Q.** And the IC50 [2]?
**A.** 25 nM

**Q.** With NC(=O)/C=C/c1ccc(-c2nc3cnc4[nH]ccc4c3n2C2CCCCC2)cc1 as the compound, how does the solubility [15] read?
**A.** Insoluble

**Q.** And the IC50 [6]?
**A.** > 1000 nM

**Q.** For CN(C)C(=O)C(C#N)=Cc1ccc(-c2nc3cnc4[nH]ccc4c3n2C2CCCCC2)o1, which solubility [13] is on record?
**A.** 56 µM (≈ 24 µg/mL)

**Q.** And the half-life at 1 µM [14]?
**A.** 3 h

**Q.** What about the remaining at 3 h, 1 µM [8] of the same compound?
**A.** 49.4%

**Q.** And the EC50 [9]?
**A.** > 10000 nM

**Q.** What about the remaining at 3 h, 100 µM [10] of the same compound?
**A.** 58%

**Q.** Which results are given for N#C/C=C/c1ccc(-c2nc3cnc4[nH]ccc4c3n2C2CCCCC2)o1?
**A.** IC50 [1]: 12 nM; IC50 [3]: 53 nM; IC50 [5]: 0.21 nM; IC50 [6]: 27 nM; EC50 [7]: 7710 nM; IC50 [2]: 44 nM; remaining at 3 h, 1 µM [8]: 98.8%; EC50 [9]: 13300 nM; remaining at 3 h, 100 µM [10]: 53.9%; EC50 [11]: 740 nM; EC50 [12]: > 10000 nM

**Q.** With CNC(=O)C(C#N)=Cc1ccc(-c2nc3cnc4[nH]ccc4c3n2C2CCCCC2)o1 as the compound, how does the IC50 [6] read?
**A.** 23 nM

**Q.** With N#CCCc1ccc(-c2nc3cnc4[nH]ccc4c3n2C2CCCCC2)cc1 as the compound, how does the IC50 [6] read?
**A.** 436 nM

**Q.** Which IC50 [6] does the source give for NC(=O)CCc1cccc(-c2nc3cnc4[nH]ccc4c3n2C2CCCCC2)c1 here?
**A.** 490 nM

**Q.** Which IC50 [6] does the source give for CN(C)C(=O)C(C#N)=Cc1ccc(-c2nc3cnc4[nH]ccc4c3n2C2CCCCC2)cc1 here?
**A.** 571 nM

**Q.** With CN(C)C(=O)C(C#N)=Cc1ccc(-c2nc3cnc4[nH]ccc4c3n2C)o1 as the compound, how does the IC50 [6] read?
**A.** 368 nM

**Q.** For NC(=O)/C=C/c1ccc(-c2nc3cnc4[nH]ccc4c3n2C2CCCCC2)o1, which IC50 [6] is on record?
**A.** 129 nM

**Q.** Which IC50 [6] does the source give for CN(C)C(=O)C(C#N)=Cc1cccc(-c2nc3cnc4[nH]ccc4c3n2C2CCCCC2)c1 here?
**A.** 205 nM

**Q.** For N#C/C=C/c1cccc(-c2nc3cnc4[nH]ccc4c3n2C2CCCCC2)c1, which IC50 [6] is on record?
**A.** 135 nM

**Q.** Which IC50 [6] does the source give for CN(C)C(=O)CCc1cccc(-c2nc3cnc4[nH]ccc4c3n2C2CCCCC2)c1 here?
**A.** 678 nM

**Q.** For CN(C)C(=O)C(C#N)=Cc1ccc(-c2nc3cnc4c(ccn4C)c3n2C2CCCCC2)o1, which IC50 [6] is on record?
**A.** > 10000 nM

**Q.** Which IC50 [6] does the source give for N#CCCc1cccc(-c2nc3cnc4[nH]ccc4c3n2C2CCCCC2)c1 here?
**A.** 505 nM
